Series [1] has as its system beta-catenin transcriptional activity. As to conditions: background; cited from earlier work.
The test system of series [2] is MV-4-11, P116.c139 and D1.1 cell lines. The series can be described thus: Cell cytotoxicity assay, the three test cell lines taken together. The format is cell-based. The method, then: (§1) Cancer cell lines, MV-4-11 (leukemia), P116.c139 (acute T cell leukemia) and D1.1 (acute T cell leukemia), were purchased from ATCC and cultured according to supplier's recommendations. K562 cells (myelogenous leukemia) over-expressing eIF4E, were also used for the cytotoxicity assay. For cells treated for 48 hours, 5000 cells were seeded in 70 μl of growth medium in black, flat-bottom 96-well plate. For cells treated for six days, 1000 cells were seeded in 70 μl of growth medium in black, flat-bottom 96-well plate. […] 50 μl of the diluted compounds was added to the cells and incubated at 37° C. in 5% CO2. After 48 hours or six days treatment, cell viability was determined by CellTiter-Glo Luminescent Cell Viability Assay (Promega, Madison, Wis.). 120 μl of the reagent was added to the cells and luminescence was measured using Tecan Safire Reader. Data was analysed with Graphpad Prism software and the figures represented indicate the half maximal inhibitory concentration (IC50). Error bars denote standard deviation (SD).

Series [3] relates to D1.1 (acute T cell leukemia). The series can be described thus: Cell cytotoxicity assay (CellTiter-Glo), D1.1. The format is cell-based. As to conditions: T-cell, cell viability. The protocol: as §1
On the technique in general: Cellular ATP, detected with luciferase, serves as a proxy for viable cell number.

Series [4] concerns K562 cells (myelogenous leukemia) over-expressing eIF4E. The series can be described thus: Cell cytotoxicity assay (CellTiter-Glo), K562. Type of series: cell-based. The following applies: for IC50: Homo sapiens, cell viability. The method, then:
as §1

Series [5] relates to nuclear active beta-catenin in BC-CML primary cells. The series can be described thus: Immunofluorescence of nuclear active beta-catenin in BC-CML primary cells. Type of series: cell-based, human. From the text: Cord Blood (CB) samples were purchased from the Singapore Cord Blood bank. CML samples were the Singapore General Hospital after signed informed consent under local IRB-approved procedures. MNCs were obtained using Ficoll separation, and CD34^+ cells selected by immunomagnetic beads (Miltenyi Biotech, Germany).
Cells (1×10^5) were cytospun onto glass slides, fixed with 4% paraformaldehye, and stained with mouse monoclonal antibodies against activated β-catenin (clone 8E7, Millipore, UK), or rabbit monoclonal antibodies against phospho-eIF4E S209 (EP2151Y, Abcam, UK). Slides were then stained with either PE-conjugated anti-mouse or FITC-conjugated anti-rabbit antibodies. Images were obtained with the use of a fluorescence microscope (Olympus IX71S1F3) at 40× magnification.

Series [6] concerns eIF4E Ser209 phosphorylation in Hela cells. The series can be described thus: MNK cell-based assay (AlphaScreen SureFire, eIF4E Ser209 phosphorylation). As to conditions: Homo sapiens; eIF4E Ser209 phosphorylation, Hela cells, 2 hours; read-out: IC50 Hela. The gist of the method:
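Hela cells (30,000/well) exposed to test compound in serum-free medium for 2 h at 37 °C, then lysed. Phospho-Ser209 eIF4E quantified by AlphaScreen SureFire; IC50 obtained by non-linear regression of signal versus log compound concentration.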
Background: In Alpha technology, singlet oxygen from a donor bead excites a nearby acceptor bead.

Series [7] concerns the target T1, BCR-ABL (Homo sapiens, UniProt P00519).
T1 construct: host or cells: K562; the other entry of the earlier key: BCR (P11274, Breakpoint cluster region protein)
The series can be described thus: Western blot of CrK1 phosphorylation (BCR-ABL activity) in K562 cells. The format is cell-based. The protocol: (§2) K562 cell line was obtained from the ATCC, and grown in RPMI supplemented with 10% FCS, L-glutamine, and penicillin/streptomycin.
(§3) Exponentially growing cells were plated at 2×10^5 cells/ml, and whole cell lysate processed for western blot analysis using antibodies recognizing eIF4E, phospho-eIF4E (Cell signaling Technology),
(In western blotting, separated proteins are transferred to a membrane and probed.)

Series [8] concerns eIF4E phosphorylation in K562 cells. The series can be described thus: Western blot of eIF4E phosphorylation in K562 cells. The format is cell-based. As to conditions: various concentrations, 24 h. The protocol: as §2, §3
Series [9] deals with P116.c139 (acute T cell leukemia). The series can be described thus: Cell cytotoxicity assay (CellTiter-Glo), P116.c139. Type of series: cell-based. The following applies: T-cell, cell viability. The method, then: as §1
In series [10] the test system is MV-4-11 (leukemia). The series can be described thus: Cell cytotoxicity assay (CellTiter-Glo), MV-4-11. Type of series: cell-based. The following applies: Homo sapiens, cell viability. The protocol:
as §1

The structures appear in SMILES notation. “Also recorded” adds a separate entry of the source. Read-outs that look alike come from different tables or passages of the source.

What is called IC50 is the midpoint of a concentration-inhibition curve.

T1 sequence (P00519 with tags, fused parts or gaps): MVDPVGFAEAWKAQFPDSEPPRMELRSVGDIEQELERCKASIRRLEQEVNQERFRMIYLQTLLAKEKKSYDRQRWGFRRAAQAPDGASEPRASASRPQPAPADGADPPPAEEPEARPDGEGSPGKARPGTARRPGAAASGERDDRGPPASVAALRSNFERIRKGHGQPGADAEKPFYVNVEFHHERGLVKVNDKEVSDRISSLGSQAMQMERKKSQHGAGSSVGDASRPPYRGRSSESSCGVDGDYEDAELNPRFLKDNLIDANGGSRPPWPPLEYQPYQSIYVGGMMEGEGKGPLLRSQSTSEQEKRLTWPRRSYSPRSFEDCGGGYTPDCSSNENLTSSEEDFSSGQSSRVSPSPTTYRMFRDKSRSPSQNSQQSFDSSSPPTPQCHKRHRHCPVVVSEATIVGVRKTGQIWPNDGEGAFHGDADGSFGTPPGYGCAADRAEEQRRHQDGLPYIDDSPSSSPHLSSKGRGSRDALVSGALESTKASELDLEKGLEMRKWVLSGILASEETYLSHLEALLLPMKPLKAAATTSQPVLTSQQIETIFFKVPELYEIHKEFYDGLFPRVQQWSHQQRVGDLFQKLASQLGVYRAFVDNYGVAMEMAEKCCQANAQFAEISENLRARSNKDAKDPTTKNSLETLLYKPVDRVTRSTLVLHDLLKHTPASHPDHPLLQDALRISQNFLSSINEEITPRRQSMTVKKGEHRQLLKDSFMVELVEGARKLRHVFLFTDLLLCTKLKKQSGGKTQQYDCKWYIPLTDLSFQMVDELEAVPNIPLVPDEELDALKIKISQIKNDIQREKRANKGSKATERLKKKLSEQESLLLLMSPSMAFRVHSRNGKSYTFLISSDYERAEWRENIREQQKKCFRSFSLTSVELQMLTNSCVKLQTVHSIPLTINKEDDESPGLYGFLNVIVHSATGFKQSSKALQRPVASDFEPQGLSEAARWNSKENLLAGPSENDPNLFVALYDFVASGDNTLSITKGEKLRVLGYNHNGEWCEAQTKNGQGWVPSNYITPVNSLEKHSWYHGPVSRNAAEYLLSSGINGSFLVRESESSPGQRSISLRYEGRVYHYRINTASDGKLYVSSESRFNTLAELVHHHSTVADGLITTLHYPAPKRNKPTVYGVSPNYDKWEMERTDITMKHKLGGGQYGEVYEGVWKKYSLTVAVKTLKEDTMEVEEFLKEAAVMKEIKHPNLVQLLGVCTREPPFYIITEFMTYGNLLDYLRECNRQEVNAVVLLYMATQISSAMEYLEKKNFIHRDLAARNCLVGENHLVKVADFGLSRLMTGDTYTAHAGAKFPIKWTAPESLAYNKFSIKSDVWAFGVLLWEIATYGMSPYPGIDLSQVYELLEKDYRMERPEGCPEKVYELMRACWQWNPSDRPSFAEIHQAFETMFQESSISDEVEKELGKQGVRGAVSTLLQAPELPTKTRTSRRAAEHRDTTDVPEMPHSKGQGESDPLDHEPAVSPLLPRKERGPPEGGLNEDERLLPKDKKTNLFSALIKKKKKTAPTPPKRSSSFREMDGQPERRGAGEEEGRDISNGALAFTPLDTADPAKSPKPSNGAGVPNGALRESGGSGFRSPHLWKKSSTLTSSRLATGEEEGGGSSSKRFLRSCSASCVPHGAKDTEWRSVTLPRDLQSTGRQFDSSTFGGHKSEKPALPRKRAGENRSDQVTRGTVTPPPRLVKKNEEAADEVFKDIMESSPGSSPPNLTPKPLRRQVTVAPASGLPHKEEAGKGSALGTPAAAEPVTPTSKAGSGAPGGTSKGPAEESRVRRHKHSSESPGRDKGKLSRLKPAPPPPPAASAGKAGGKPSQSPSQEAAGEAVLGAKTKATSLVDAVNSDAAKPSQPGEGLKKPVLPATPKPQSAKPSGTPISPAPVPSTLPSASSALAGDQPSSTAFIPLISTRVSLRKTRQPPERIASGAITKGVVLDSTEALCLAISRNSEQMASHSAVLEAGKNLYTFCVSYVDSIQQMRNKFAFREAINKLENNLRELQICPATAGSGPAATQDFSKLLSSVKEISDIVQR

As for `CC[n+]1c(/C=C/N(C)c2ccccc2)n(-c2ccccc2)c2ccc(-c3nc4ccccc4s3)cc21.[I-]` [AKT inhibitor IV], in [1], the “eIF4E-mediated increases in beta-catenin transcriptional activity” value is listed as “prevented eIF4E-mediated increases in beta-catenin transcriptional activity”.
As for `CN1CCN(C(=O)c2ccc(-c3ccn4ncc(-c5ccc(C#N)cc5)c4n3)cc2)CC1` [Example 176, 4-(5-(4-(4-methylpiperazine-1-carbonyl)phenyl)pyrazolo[1,5-a]pyrimidin-3-yl)benzonitrile], the “relative cytotoxicity amongst the four compounds” value in series [2] was “most cytotoxic”. In addition, the IC50 in [2] (Homo sapiens, MV4-11, regardless of the treatment duration (48 hours or 6 days)) is at most 1000 nM; in series [3] (144 h, 6 days, read-out: IC50 after 6 days of treatment, D1.1) it was 800 nM; in series [3] (48 hours, read-out: IC50 after 48 hours of treatment, D1.1), 1000 nM; in series [4] (K562, 144 h, 6 days, read-out: IC50 after 6 days of treatment, K562) it was 3400 nM; in [4] (K562, 48 hours, read-out: IC50 after 48 hours of treatment, K562), 14200 nM; in [6], below 1000 nM. In addition, the half-inhibitory concentration (IC50) in [9] (144 h, 6 days, read-out: IC50 after 6 days of treatment, P116.c139) was found to be 100 nM; in series [9] (48 hours, read-out: IC50 after 48 hours of treatment, P116.c139), 400 nM; in series [10] (MV4-11, 144 h, 6 days, read-out: IC50 after 6 days of treatment, MV-4-11), 400 nM; in series [10] (MV4-11, 48 hours, read-out: IC50 after 48 hours of treatment, MV-4-11), 1000 nM. The “change of IC50 when treatment duration was extended from 48 hours to 6 days, K562” value in series [4] (K562 cells over-expressing eIF4E) was “reduced by more than half”. Besides, the “nuclear active beta-catenin in BC-CML primary cells, immunofluorescence” value in series [5] is listed as “decrease in nuclear beta-catenin accumulation”. Further, the “BCR-ABL activity (phosphorylation of CrK1) in K562 cells” value in [7] is recorded as “decrease in BCR-ABL activity”. In [8], the “eIF4E phosphorylation in K562 (BC-CML cell line), Western blot” value was “prevent eIF4E phosphorylation; also recorded: decrease in eIF4E phosphorylation”.

(Values after patent publication US20190211020A1 (Agency for Science, Technology and Research, priority 2012, published 2019).)
